# Source: patent US10864159B2, “Method and composition for treating ocular hypertension and glaucoma” (Santen Pharmaceutical Co., Ltd., priority 2008, dated 2020)
# Test: Absorption of preservative-free tafluprost to low density polyethylene containers, remaining concentration by HPLC
# Type: physicochemical
# Details: LDPE unit dose container, 20 weeks at 5° C., 25° C. and 40° C.
# Procedure: The effect of nonionic surfactant on the absorption of preservative-free tafluprost to low density polyethylene containers was studied for 20 weeks at 5° C., 25° C. and 40° C. Three different polysorbate 80 (Tween 80) concentrations, namely 0.05%, 0.075% and 0.1% were used. The composition of the preservative-free aqueous tafluprost formulation except polysorbate 80 was 0.0015% tafluprost, 2.25% glycerol, 0.2% sodium dihydrogen phosphate dihydrate, 0.05% disodium edetate and sodium hydroxide and/or hydrochloric acid to adjust the pH to 5.0-6.7. 0.3 ml of the composition prepared above was filled in the body part of the unit dose container (LDPE) and sealed by heating with the upper part of the container (LDPE). The inner volume of the unit dose container was ca. 1 ml. The container was packaged into paper coated aluminium-polyethylene foil and stored in refrigerator or incubator. The remaining concentration of tafluprost was measured by HPLC.
smiles,measurement,setting,value
CC(C)OC(=O)CCC/C=C\C[C@@H]1[C@@H](/C=C/C(F)(F)COc2ccccc2)[C@H](O)C[C@@H]1O [tafluprost],absorption of tafluprost to polyethylene,polysorbate 80 0.05 to 0.1%,inhibits the absorption of tafluprost
same,absorption of tafluprost to polyethylene,polysorbate 80 0.075 to 0.1%,good inhibition effect of absorption of tafluprost
